Measurements as given in ChEMBL document CHEMBL1201862, “PubChem BioAssay data set” (2004).
The source made the active and inactive calls.

Assays:
P388/ADR = assay: cells; format: functional; conditions: Mus musculus
SN12K1 = assay: cells; format: functional; conditions: Homo sapiens
P388 = assay: cells; format: functional; conditions: Mus musculus
HEK293 = assay: inhibitors of LMP1-driven NF-kB reporter, dose response, cell-based, HEK293, luciferase, cherry-pick (AID 588343); format: functional; conditions: Homo sapiens
[1] = biological target: Heat shock protein HSP 90-alpha (Homo sapiens, UniProt P07900); format: functional, organism-based
[2] = Luminescence Cell-Based Dose Retest to Confirm Inhibitors of Cancer Stem Cells. [Related pubchem assays (depositor defined):AID2717, AID2721]; format: functional; conditions: Homo sapiens
[3] = inhibitors of HIV Env-driven cell fusion, dose response, cherry-pick (AID 652057); format: functional, cell-based
[4] = inhibitors of clade B AD8 Env fusion, dose response, cell-based, cherry-pick (AID 652062); format: functional;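 note: luciferase signal from cell-cell fusion driven by HIV-1 clade B AD8 Env; potency is for inhibitors of fusion seen as a drop in luminescence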
[5] = ZM109 Env clade C HIV-1 fusion inhibitors, dose response, HeLa effector, CEM target cells, luciferase, cherry-pick (AID 652058); format: functional, cell-based
[6] = biological target: T1, Heat shock factor protein 1 (Mus musculus, UniProt P38532); assay: HSF1 potentiators in luciferase reporter cells, confirmation, cell-based, NIH3T3, luminescence, dose retest (AID 435004); format: functional;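 note: stress induced by proteasome inhibitor MG132 added 30 min after compound; luciferase reporter driven by HSF1 response element in NIH3T3 cells; actives raise luminescence as potentiators of the MG132 stress response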
T1 sequence (P38532 whole entry): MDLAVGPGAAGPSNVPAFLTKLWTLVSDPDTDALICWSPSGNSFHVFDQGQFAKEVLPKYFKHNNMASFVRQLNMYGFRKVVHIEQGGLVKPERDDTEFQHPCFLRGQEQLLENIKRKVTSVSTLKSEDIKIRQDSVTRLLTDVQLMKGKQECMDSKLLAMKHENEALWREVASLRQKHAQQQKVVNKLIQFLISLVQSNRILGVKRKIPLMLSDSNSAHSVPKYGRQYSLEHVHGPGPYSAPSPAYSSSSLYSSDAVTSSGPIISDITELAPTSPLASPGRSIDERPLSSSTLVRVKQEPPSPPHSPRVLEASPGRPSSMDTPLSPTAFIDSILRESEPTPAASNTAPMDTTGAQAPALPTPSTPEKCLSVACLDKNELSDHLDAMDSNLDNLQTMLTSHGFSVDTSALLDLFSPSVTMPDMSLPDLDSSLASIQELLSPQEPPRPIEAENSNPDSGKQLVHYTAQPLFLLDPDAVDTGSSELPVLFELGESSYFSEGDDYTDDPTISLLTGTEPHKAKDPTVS

[7] = biological target: T2, Replicative DNA helicase DnaB (Mycobacterium tuberculosis, UniProt P9WMR3); assay: DnaB intein splicing inhibitors, dose response, biochemical, cell-free fluorescence (AID 449749); format: functional
T2 sequence (P9WMR3 whole entry): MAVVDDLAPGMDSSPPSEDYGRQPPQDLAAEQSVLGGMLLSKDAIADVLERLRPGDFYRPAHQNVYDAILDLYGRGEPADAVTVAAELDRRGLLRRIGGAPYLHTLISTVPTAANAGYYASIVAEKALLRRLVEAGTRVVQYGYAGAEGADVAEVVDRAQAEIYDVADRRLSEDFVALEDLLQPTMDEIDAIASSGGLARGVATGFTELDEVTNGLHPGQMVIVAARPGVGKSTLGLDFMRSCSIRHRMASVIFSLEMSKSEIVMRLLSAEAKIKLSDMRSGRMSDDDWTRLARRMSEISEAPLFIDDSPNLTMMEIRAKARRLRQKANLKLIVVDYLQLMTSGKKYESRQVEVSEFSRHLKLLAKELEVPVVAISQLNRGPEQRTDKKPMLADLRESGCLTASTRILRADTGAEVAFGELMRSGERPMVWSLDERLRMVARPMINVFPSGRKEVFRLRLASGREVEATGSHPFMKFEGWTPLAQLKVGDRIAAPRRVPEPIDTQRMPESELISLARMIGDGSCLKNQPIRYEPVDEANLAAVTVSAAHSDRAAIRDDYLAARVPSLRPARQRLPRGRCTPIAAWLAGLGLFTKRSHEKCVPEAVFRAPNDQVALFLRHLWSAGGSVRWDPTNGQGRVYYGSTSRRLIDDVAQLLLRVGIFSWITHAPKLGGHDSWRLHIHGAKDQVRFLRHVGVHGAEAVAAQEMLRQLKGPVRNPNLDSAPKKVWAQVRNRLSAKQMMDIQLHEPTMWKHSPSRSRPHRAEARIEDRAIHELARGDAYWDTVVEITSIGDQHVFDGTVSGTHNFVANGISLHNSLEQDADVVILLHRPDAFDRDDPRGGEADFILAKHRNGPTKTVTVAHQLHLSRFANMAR

[8] = biological target: T3, Microphthalmia-associated transcription factor (Homo sapiens, UniProt O75030); assay: TRPM1 promoter luciferase signal decrease, dose response, MITF inhibitor project, cell-based, SK-MEL-5, cherry-picked, set 3 (AID 493073); format: functional
T3 sequence (O75030 whole entry): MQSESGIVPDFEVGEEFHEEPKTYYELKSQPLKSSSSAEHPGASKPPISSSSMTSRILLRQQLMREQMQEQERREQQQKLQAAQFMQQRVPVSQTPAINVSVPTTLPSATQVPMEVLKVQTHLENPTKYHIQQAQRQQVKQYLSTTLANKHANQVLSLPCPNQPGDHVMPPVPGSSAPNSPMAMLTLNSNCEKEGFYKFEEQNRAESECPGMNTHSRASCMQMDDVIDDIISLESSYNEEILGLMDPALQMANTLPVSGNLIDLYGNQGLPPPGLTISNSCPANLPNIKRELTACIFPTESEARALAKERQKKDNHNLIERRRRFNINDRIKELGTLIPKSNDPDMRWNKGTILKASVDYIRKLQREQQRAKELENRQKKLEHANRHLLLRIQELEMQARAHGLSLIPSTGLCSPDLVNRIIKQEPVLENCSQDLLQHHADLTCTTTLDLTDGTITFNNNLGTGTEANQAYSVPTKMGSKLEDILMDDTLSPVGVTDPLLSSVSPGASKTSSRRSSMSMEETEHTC

Protein RecA = biological target: T4, Protein RecA (Mycobacterium tuberculosis, UniProt P9WHJ3); assay: Fluorescence Cell-Free Homogeneous Dose Retest to Identify Inhibitors of RecA-Intein Splicing Activity. [Related pubchem assays (depositor defined):AID2097, AID2223, AID489010, AID492950]; format: functional
T4 sequence (P9WHJ3 whole entry): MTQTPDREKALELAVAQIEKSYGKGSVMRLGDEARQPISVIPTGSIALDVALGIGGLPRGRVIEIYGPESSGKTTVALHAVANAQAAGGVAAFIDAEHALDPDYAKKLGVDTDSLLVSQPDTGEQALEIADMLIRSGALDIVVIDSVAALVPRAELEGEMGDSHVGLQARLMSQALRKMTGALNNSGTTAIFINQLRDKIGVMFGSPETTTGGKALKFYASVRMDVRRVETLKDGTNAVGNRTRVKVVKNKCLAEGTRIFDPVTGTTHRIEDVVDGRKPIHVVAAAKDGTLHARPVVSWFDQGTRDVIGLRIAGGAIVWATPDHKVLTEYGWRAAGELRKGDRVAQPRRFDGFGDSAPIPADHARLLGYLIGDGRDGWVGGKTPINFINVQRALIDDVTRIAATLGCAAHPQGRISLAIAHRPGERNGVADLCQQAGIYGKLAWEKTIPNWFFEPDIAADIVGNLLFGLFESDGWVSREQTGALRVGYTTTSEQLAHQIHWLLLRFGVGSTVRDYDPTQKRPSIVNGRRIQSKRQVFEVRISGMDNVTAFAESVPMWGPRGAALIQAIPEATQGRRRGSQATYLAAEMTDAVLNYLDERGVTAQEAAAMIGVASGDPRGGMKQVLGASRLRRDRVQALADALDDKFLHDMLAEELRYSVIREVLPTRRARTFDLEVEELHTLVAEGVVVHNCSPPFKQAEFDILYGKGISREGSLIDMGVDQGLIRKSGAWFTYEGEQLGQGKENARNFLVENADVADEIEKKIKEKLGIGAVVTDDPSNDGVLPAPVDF

[9] = HepG2 cell cytotoxicity, dose response, cytotoxicity control for Shn3 inhibitor project, CellTiter-Glo, cherry-picked (AID 624134); format: functional, cell-based
[10] = control 3'UTR Renilla luciferase suppression, dose response, counter-screen for Shn3 inhibitor project, cell-based, Clone20-Shn3RL, cherry-picked (AID 624133); format: functional
[11] = Shn3 3'UTR reporter inhibitors, dose response, cell-based, Clone20 osteoblasts, firefly luciferase, cherry-picked (AID 624132); format: functional;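 note: firefly luciferase luminescence from reporter carrying the Shn3 3'UTR in osteoblasts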
[12] = inhibitors of intracellular T. cruzi replication, confirmation, NIH3T3 host cells, beta-gal luminescence (AID 2044); format: functional, cell-based;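 note: intracellular parasites grown in NIH/3T3 mouse fibroblasts as host cells; luminescent beta-galactosidase reporter signal from transgenic T. cruzi replicating inside host cells; inhibitors lower the luminescence signal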
[13] = cytotoxicity toward NIH3T3 fibroblasts, dose response, counter-screen, cell-based, ATP luminescence, mouse fibroblasts (AID 2010); format: functional;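 note: cells exposed to compound for about 90 hours before reading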
Leucine aminopeptidase = biological target: T5, Leucine aminopeptidase (Plasmodium falciparum 3D7, UniProt Q8IL11); assay: P. falciparum M17LAP inhibitors, primary screen, biochemical, fluorogenic H-Leu-NHMec substrate, 1536-well (AID 1619); format: functional
T5 sequence (Q8IL11 whole entry): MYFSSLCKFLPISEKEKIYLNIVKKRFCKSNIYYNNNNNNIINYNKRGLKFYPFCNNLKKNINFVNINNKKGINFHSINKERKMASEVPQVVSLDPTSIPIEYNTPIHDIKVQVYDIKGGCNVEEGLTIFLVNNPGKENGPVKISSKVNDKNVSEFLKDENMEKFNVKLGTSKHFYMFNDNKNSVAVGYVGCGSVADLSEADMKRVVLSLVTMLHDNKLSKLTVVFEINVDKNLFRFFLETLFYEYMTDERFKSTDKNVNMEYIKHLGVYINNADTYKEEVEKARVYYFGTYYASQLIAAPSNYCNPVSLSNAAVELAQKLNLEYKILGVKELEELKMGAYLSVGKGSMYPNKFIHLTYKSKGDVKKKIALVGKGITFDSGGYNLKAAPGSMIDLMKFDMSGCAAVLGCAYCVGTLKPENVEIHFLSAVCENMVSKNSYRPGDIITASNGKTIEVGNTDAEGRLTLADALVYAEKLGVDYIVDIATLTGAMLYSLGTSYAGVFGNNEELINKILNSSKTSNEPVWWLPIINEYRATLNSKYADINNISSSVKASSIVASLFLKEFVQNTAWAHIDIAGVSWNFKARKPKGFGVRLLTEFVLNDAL

CSc1nc(NC2OC(CO)C(O)C(O)C2O)c(N)c(=O)[nH]1 (stereo not drawn)
GI50 (P388/ADR): > 100 µM (inactive) | GI50 (SN12K1): > 100 µM (inactive) | GI50 (P388): > 100 µM (inactive)

c1ccc(C(=NNc2nc3ccccc3s2)c2ccccn2)cc1
AC50 (HEK293): 3.05 µM (active) | AC50 [1]: 16.4 µM (active)

c1ccc2c(c1)OCCc1cn[nH]c1-2
GI50 (P388/ADR): > 100 µM (inactive) | GI50 (SN12K1): > 100 µM (inactive) | GI50 (P388): > 100 µM (inactive)

Cc1ccccc1NC(=O)C(Cl)=C(Cl)Cl
AC50 (HEK293): 22.1 µM (active) | AC50 [2]: 6.73 µM (active)

C[C@H](CO)N1C[C@H](C)[C@H](CN(C)CC2CC2)Oc2ccc(NC(=O)Nc3ccc4c(c3)OCO4)cc2CC1=O
AC50 [3]: 4.41 µM (active) | AC50 [4]: 20.5 µM (active)

CSc1nc(CO)c(CO)n1C
GI50 (P388/ADR): > 100 µM (inactive) | GI50 (SN12K1): > 100 µM (inactive) | GI50 (P388): > 100 µM (inactive)

COc1cccc(-c2cnc3c(c2)C(=O)N([C@H](C)CO)C[C@H](C)[C@H](CN(C)C(=O)Nc2cccc4ccccc24)O3)c1
AC50 [5]: 0.284 µM (active) | AC50 [3]: < 0.26 µM (active) | AC50 [4]: 0.407 µM (active)

O=C(CCl)Nc1cccc(Oc2ccccc2)c1
EC50 [6]: > 260 µM (inactive) | AC50 [7]: 11.9 µM (active) | AC50 [8]: 8.07 µM (active) | EC50 (Protein RecA): 4.28 µM (active)

COc1ccc(CNC(=O)N(C)C[C@H]2OCc3ccccc3-c3ccccc3C(=O)N([C@H](C)CO)C[C@@H]2C)cc1
AC50 [5]: 1.16 µM (active) | AC50 [3]: 0.826 µM (active) | AC50 [4]: 3.51 µM (active)

CNC(=O)SCC(N)C(=O)O (stereo not drawn)
GI50 (P388/ADR): 16.8 µM (inactive) | GI50 (SN12K1): 62.2 µM (inactive) | GI50 (P388): 16.5 µM (inactive)

Oc1nc(Nc2nc3ccccc3o2)nc2c1CCCC2
AC50 (HEK293): 2.05 µM (active) | AC50 [9]: 9.63 µM (active) | AC50 [10]: 5.26 µM (active) | AC50 [11]: 7.71 µM (active) | EC50 [12]: 1.9 µM (active) | EC50 [13]: 3.87 µM (active)

C[C@H](CO)N1C[C@H](C)[C@H](CN(C)S(=O)(=O)c2ccccc2)Oc2ccc(NS(=O)(=O)c3cccs3)cc2CC1=O
AC50 [5]: 2.13 µM (active) | AC50 [3]: 0.557 µM (active) | AC50 [4]: 12.6 µM (active)

O=c1c2cnn(-c3ccccc3)c2nc(-c2cccs2)n1-c1ccc(Br)cc1
AC50 (HEK293): 1.77 µM (active)

C[C@H](CO)N1C[C@H](C)[C@H](CN(C)S(=O)(=O)c2ccccc2)Oc2ncc(/C=C/c3ccccc3)cc2C1=O
AC50 [5]: 3.51 µM (active)

O=S(=O)(Nc1nc2ccccc2nc1NCCN1CCOCC1)c1cccc(Cl)c1
IC50 (Leucine aminopeptidase): 25.9 µM (active)

Nc1cccc2c1C1=NNC(=O)CC1C2 (stereo not drawn)
GI50 (SN12K1): > 100 µM (inactive) | GI50 (P388): > 100 µM (inactive)

COc1ccc2c(c1O)-c1cc(O)cc3c1[C@@H](C2)N(C)CC3
GI50 (P388/ADR): 40.2 µM (inactive) | GI50 (SN12K1): 63.4 µM (inactive) | GI50 (P388): 9.1 µM (inactive)

CC(=O)Oc1cc2c(cc1OC(C)=O)OCC(c1ccccc1)C2 (stereo not drawn)
GI50 (P388/ADR): 4.08 µM (inactive) | GI50 (SN12K1): 13.6 µM (inactive) | GI50 (P388): 4.16 µM (inactive)
